Assay results published in patent US20080103151A9, “Heterocyclic compounds and their uses as therapeutic agents” (Xenon Pharmaceuticals Inc., priority 2005, published 2008).

Legend:
[1] = Stability of the isolated solid in the air; format: physicochemical; conditions: white solid, turned to red in the air
Procedure: A mixture of 3-hydroxy-3-(6-hydroxy-1,3-benzodioxol-5-yl)-1-pentyl-1,3-dihydro-2H-pyrrolo[3,2-c]pyridin-2-one (0.15 g, 0.42 mmol), triethylsilane (1.60 mL, 10.0 mmol) and trifluroacetic acid (0.74 mL, 10.0 mmol) was stirred at ambient temperature overnight. The mixture was diluted with ethyl acetate (100 mL), washed with water, dried over anhydrous sodium sulfate and filtered. The filtrate was concentrated in vacuo. The residue was triturated with diethyl ether to give the title compound as a white solid (not stable, turned to red in the air): MS (ES+) m/z 341.4 (M+1).

[2] = biological target: Nav1.4 (CHO-K1 cells) (Cricetulus griseus, UniProt A0A9J7H6F9); format: cell-based, Chinese Hamster
[3] = biological target: NaV1.8 (SK-N-BE2C neuroblastoma cell line) (Homo sapiens, UniProt Q9Y5Y9); format: cell-based
[4] = test system: Nav1.4 and 1.5 (L6 rat myoblast cell); format: cell-based
[5] = biological target: Nav1.2 (PC12 pheochromocytoma) (Rattus norvegicus, UniProt P04775)
Sequence of Nav1.2 (PC12 pheochromocytoma) (P04775 whole entry, looked up): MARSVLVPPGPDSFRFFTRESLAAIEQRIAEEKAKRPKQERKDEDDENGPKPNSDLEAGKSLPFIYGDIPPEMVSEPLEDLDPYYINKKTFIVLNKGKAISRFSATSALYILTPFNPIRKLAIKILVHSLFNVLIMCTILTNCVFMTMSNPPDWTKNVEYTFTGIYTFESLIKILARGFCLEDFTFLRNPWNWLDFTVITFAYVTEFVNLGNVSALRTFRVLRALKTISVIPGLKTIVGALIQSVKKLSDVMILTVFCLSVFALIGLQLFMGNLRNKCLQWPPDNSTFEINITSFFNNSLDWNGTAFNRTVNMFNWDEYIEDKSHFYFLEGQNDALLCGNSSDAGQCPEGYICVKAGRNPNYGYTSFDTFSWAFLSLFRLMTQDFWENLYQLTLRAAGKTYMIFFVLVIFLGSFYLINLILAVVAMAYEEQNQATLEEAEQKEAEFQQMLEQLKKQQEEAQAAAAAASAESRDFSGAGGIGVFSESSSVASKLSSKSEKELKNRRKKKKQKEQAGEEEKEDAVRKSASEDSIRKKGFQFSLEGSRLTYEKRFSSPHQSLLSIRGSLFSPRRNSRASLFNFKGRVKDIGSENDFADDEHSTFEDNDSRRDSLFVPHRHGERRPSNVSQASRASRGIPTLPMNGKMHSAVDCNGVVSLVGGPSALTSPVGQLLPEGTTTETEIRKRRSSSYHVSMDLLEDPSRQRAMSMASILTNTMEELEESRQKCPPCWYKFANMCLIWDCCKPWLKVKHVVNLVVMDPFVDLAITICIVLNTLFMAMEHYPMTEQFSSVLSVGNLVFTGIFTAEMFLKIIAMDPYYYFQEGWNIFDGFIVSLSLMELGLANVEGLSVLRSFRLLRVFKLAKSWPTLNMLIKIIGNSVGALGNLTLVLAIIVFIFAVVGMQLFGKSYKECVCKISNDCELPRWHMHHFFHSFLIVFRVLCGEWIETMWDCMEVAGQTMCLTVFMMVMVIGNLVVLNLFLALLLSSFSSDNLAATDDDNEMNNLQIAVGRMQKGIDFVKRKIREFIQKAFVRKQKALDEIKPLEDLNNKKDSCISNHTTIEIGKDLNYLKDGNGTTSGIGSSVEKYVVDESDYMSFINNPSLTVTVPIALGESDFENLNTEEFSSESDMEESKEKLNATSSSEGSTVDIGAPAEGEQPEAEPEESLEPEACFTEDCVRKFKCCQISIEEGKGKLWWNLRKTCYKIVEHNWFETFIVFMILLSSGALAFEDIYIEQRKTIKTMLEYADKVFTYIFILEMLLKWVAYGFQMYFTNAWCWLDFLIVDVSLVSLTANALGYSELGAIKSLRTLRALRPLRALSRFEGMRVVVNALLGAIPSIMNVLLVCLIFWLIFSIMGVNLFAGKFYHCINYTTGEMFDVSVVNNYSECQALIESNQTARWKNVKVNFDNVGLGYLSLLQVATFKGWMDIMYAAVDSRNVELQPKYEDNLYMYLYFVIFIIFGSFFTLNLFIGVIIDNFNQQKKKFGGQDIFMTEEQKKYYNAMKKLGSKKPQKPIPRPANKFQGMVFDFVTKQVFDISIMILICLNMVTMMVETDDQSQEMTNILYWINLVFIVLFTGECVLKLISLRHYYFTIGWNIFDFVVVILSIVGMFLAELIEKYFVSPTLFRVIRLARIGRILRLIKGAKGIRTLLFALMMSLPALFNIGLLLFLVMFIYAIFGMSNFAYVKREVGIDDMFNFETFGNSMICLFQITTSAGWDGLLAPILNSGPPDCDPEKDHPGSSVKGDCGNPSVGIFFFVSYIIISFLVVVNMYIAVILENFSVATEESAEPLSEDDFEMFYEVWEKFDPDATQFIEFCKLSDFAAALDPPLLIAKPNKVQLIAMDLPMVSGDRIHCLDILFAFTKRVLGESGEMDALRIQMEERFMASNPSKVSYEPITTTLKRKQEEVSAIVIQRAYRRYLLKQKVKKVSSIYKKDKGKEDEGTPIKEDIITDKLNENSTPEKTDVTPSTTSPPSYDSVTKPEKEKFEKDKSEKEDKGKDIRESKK

Sequence of Nav1.4 (CHO-K1 cells) (A0A9J7H6F9 1-1930): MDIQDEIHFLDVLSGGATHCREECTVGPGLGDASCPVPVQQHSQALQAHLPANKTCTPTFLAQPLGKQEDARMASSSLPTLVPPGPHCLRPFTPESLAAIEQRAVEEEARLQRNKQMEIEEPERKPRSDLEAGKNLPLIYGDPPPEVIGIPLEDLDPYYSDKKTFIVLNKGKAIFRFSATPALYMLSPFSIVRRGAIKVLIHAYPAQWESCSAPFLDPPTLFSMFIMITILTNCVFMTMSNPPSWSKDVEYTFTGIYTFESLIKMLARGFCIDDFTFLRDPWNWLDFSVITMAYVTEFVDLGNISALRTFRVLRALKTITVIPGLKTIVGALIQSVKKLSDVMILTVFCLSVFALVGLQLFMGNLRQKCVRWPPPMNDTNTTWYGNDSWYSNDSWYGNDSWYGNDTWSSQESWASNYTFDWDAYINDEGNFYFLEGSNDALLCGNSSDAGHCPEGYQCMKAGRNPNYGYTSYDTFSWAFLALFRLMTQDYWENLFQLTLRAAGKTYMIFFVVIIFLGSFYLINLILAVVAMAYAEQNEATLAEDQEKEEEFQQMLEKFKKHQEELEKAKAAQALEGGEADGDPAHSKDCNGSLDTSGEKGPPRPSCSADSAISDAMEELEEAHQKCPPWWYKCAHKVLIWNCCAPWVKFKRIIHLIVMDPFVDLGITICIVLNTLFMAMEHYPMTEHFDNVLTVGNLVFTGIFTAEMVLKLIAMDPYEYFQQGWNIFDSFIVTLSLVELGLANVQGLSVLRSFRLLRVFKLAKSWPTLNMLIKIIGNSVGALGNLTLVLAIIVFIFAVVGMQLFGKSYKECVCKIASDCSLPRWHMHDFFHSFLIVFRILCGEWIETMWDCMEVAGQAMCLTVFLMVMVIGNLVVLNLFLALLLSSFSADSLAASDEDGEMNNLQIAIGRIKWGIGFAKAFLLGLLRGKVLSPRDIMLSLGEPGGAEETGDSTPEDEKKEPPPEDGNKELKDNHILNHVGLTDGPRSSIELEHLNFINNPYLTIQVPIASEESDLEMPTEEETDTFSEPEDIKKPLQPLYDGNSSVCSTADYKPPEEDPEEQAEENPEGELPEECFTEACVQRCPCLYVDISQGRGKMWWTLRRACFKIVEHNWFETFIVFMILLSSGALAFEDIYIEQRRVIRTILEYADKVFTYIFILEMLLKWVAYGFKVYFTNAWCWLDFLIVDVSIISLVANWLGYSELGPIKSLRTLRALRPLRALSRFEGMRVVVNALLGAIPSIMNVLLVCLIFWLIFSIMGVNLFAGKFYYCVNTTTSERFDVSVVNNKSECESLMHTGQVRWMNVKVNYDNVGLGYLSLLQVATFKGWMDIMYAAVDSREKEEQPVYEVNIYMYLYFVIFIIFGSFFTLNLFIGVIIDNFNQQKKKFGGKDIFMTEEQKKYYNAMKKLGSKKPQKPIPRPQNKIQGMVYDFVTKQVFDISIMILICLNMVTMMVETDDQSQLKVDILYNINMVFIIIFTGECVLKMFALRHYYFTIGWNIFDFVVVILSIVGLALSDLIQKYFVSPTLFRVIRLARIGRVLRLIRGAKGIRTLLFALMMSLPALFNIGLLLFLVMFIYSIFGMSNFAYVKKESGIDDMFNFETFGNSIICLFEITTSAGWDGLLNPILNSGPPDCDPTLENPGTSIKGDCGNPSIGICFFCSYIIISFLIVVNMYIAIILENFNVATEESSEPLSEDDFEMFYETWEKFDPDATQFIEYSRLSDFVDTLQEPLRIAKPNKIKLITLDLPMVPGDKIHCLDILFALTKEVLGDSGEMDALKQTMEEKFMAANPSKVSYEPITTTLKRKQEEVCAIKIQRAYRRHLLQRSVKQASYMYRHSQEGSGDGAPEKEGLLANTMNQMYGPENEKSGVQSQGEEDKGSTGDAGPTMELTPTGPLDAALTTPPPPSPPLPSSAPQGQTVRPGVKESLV

## CCCCCN1C(=O)C(O)(c2ccc3c(c2)OCO3)c2cccnc21 (centres unmarked)
other
  melting point: 104 to 105 °C

## CCCCCN1C(=O)C(O)(c2cc3c(cc2O)OCO3)c2cnccc21 (centres unmarked)
other
  melting point: 193 to 195 °C

## CCCCCN1C(=O)C(c2cc3c(cc2O)OCO3)c2cnccc21 (centres unmarked) [Example 10, 3-(6-hydroxy-1,3-benzodioxol-5-yl)-1-pentyl-1,3-dihydro-2H-pyrrolo[3,2-c]pyridin-2-one]
[1]
  stability of the solid in the air: not stable

## CCCCCN1C(=O)C(c2ccc3c(c2)OCO3)c2cccnc21 (centres unmarked) [Example 17, 3-(1,3-benzodioxol-5-yl)-1-pentyl-1,3-dihydro-2H-pyrrolo[2,3-b]pyridin-2-one]
other
  melting point: 75 to 77 °C

## NC1=N[C@H](O)[C@H]2[C@H]3O[C@]4(O)O[C@@H]([C@@H](O)[C@@]2(N1)[C@@H]4O)[C@]3(O)CO [TTX, tetrodotoxin]
[2]
  block of [^14C] Guanidine influx by TTX: Guanidine influx was completely
[3]
  block of [^14C] Guanidine influx by TTX: TTX partially blocked influx
[4]
  block of [^14C] Guanidine influx by TTX: partially blocked by TTX (Nav1.5
[5]
  block of [^14C] Guanidine influx by TTX: Guanidine influx was completely
